Results: US9657015B2, “Substituted bicyclic dihydropyrimidinones and their use as inhibitors of neutrophil elastase activity” (Boehringer Ingelheim International GmbH, priority 2014, dated 2017)

Legend:
[1] = molecular target: Human neutrophil elastase (Homo sapiens (Human), UniProt P08246); assay: Human Neutrophil Elastase Assay; assay type: biochemical; settings: substrate MeOSuc-Ala-Ala-Pro-Val-AMC 250 μM, pH 7.5, room temperature
Method: The following buffers were used: Compound buffer: 100 mM Tris, 500 mM NaCl, adjusted to pH 7.5; Assay buffer: 100 mM Tris, 500 mM NaCl, adjusted to pH 7.5, containing 0.01% BSA.
Assay conditions: Test compounds were prediluted in DMSO and subsequently in compound buffer (5% DMSO final). […] After inactivation of the enzyme, fluorescence intensities were measured at 380 nm excitation and 460 nm emission wavelengths.
Each plate contains wells with a high value control (DMSO+enzyme+substrate) and wells with a low value control (DMSO+inactivated enzyme+substrate). IC50 values were estimated using a sigmoidal concentration response curve with variable slope. Means of low values were taken as 0%, means of high values as 100%.

[2] = molecular target: neutrophil elastase in human plasma (Homo sapiens (Human), UniProt P08246); assay: Neutrophil elastase inhibitory activity in human plasma; assay type: biochemical; settings: human plasma assay (zymosan-stimulated blood plasma), substrate 250 μM, pH 7.5
Sequence of neutrophil elastase in human plasma (P08246 30-247): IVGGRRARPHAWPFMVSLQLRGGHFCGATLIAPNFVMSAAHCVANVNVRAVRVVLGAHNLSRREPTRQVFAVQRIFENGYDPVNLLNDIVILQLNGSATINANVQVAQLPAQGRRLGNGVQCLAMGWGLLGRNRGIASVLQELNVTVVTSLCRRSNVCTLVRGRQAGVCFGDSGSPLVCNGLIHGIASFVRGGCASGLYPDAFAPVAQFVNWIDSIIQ

Sequence of Human neutrophil elastase (P08246 30-247): as above

N#Cc1ccc(C2NC(=O)N(c3cccc(C(F)(F)F)c3)C3=C2C(=O)NCC3)cc1 (racemic) [Example 1, 4-(2,5-Dioxo-1-(3-(trifluoromethyl)phenyl)-1,2,3,4,5,6,7,8-octahydropyrido[4,3-d]-pyrimidin-4-yl)benzonitrile]
IC50 [1]: 5.7 nM
IC50 [2]: 11 nM

N#Cc1ccc(C2NC(=O)N(c3cccc(C(F)F)c3)C3=C2C(=O)NCC3)cc1 (racemic) [Example 2, 4-(1-(3-(Difluoromethyl)phenyl)-2,5-dioxo-1,2,3,4,5,6,7,8-octahydropyrido[4,3-d]-pyrimidin-4-yl)benzonitrile]
IC50 [1]: 6.9 nM
IC50 [2]: 8.2 nM

CN1CCC2=C(C1=O)C(c1ccc(C#N)cc1)NC(=O)N2c1cccc(C(F)(F)F)c1 (racemic) [Example 4, 4-(6-Methyl-2,5-dioxo-1-(3-(trifluoromethyl)phenyl)-1,2,3,4,5,6,7,8-octahydropyrido[4,3-d]pyrimidin-4-yl)benzonitrile]
IC50 [1]: 5.8 nM
IC50 [2]: 2.9 nM

CNC(=O)CN1C(=O)N(c2cccc(C(F)(F)F)c2)C2=C(C(=O)NCC2)C1c1ccc(C#N)cc1 (racemic) [Example 12, 2-(4-(4-Cyanophenyl)-2,5-dioxo-1-(3-(trifluoromethyl)phenyl)-1,2,5,6,7,8-hexahydropyrido[4,3-d]pyrimidin-3(4H)-yl)-N-methylacetamide]
IC50 [1]: 2 nM
IC50 [2]: 2.8 nM

CN1C(=O)N(c2cccc(C(F)(F)F)c2)C2=C(C(=O)NCC2)C1c1ccc(C#N)cc1-c1cnco1 (racemic) [Example 25, 4-{3-Methyl-2,5-dioxo-1-[3-(trifluoromethyl)phenyl]-1H,2H,3H,4H,5H,6H,7H,8H-pyrido[4,3-d]pyrimidin-4-yl}-3-(1,3-oxazol-5-yl)benzonitrile]
IC50 [1]: < 1 nM
IC50 [2]: 1.5 nM

CN1C(=O)N(c2cccc(C(F)(F)F)c2)C2=C(C(=O)NCC2)C1c1ccc(C#N)cc1-c1cnn(C)c1 (racemic) [Example 26, 3-(1-Methyl-1H-pyrazol-4-yl)-4-{3-methyl-2,5-dioxo-1-[3-(trifluoromethyl)phenyl]-1H,2H,3H,4H,5H,6H,7H,8H-pyrido[4,3-d]pyrimidin-4-yl}benzonitrile]
IC50 [1]: < 1 nM
IC50 [2]: 1.4 nM

CN1C(=O)N(c2cccc(C(F)(F)F)c2)C2=C(C(=O)NCC2)C1c1ccc(C#N)cc1CO (racemic) [Example 29, 3-(Hydroxymethyl)-4-{3-methyl-2,5-dioxo-1-[3-(trifluoromethyl)phenyl]-1H,2H,3H,4H,5H,6H,7H,8H-pyrido[4,3-d]pyrimidin-4-yl}benzonitrile]
IC50 [1]: < 1 nM
IC50 [2]: < 1 nM

N#Cc1ccc([C@@H]2NC(=O)N(c3cccc(C(F)(F)F)c3)C3=C2C(=O)NCC3)cc1 [Example 1B, (S)-4-(2,5-Dioxo-1-(3-(trifluoromethyl)phenyl)-1,2,3,4,5,6,7,8-octahydropyrido[4,3-d]-pyrimidin-4-yl)benzonitrile]
IC50 [1]: 940 nM

N#Cc1ccc([C@@H]2NC(=O)N(c3cccc(C(F)F)c3)C3=C2C(=O)NCC3)cc1 [Example 2B, (S)-4-(1-(3-(Difluoromethyl)phenyl)-2,5-dioxo-1,2,3,4,5,6,7,8-octahydropyrido[4,3-d]-pyrimidin-4-yl)benzonitrile]
IC50 [1]: > 10000 nM

CC1(C)CC2=C(C(=O)N1)C(c1ccc(C#N)cc1)NC(=O)N2c1cccc(C(F)(F)F)c1 (centres unmarked) [Example 3, 4-(7,7-Dimethyl-2,5-dioxo-1-(3-(trifluoromethyl)phenyl)-1,2,3,4,5,6,7,8-octahydropyrido[4,3-d]pyrimidin-4-yl)benzonitrile]
IC50 [1]: 9.8 nM
IC50 [2]: 13 nM

CN1CCC2=C(C1=O)[C@H](c1ccc(C#N)cc1)NC(=O)N2c1cccc(C(F)(F)F)c1 [Example 4B, (S)-4-(6-Methyl-2,5-dioxo-1-(3-(trifluoromethyl)phenyl)-1,2,3,4,5,6,7,8-octahydropyrido[4,3-d]pyrimidin-4-yl)benzonitrile]
IC50 [1]: 1900 nM

CN1C(=O)N(c2cccc(C(F)(F)F)c2)C2=C(C(=O)NCC2)C1c1ccc(C#N)cc1 (centres unmarked) [Example 5, 4-(3-Methyl-2,5-dioxo-1-(3-(trifluoromethyl)phenyl)-1,2,3,4,5,6,7,8-octahydropyrido-[4,3-d]pyrimidin-4-yl)benzonitrile]
IC50 [1]: 1.9 nM
IC50 [2]: 1.1 nM

CN1CCC2=C(C1=O)[C@@H](c1ccc(C#N)cc1)N(C)C(=O)N2c1cccc(C(F)(F)F)c1 [Example 7, (R)-4-(3,6-Dimethyl-2,5-dioxo-1-(3-(trifluoromethyl)phenyl)-1,2,3,4,5,6,7,8-octahydropyrido[4,3-d]pyrimidin-4-yl)benzonitrile]
IC50 [1]: 1.2 nM
IC50 [2]: 2 nM

CN1C(=O)N(c2cccc(C(F)F)c2)C2=C(C(=O)NCC2)[C@@H]1c1ccc(C#N)cc1 [Example 8B, (S)-4-(1-(3-(Difluoromethyl)phenyl)-3-methyl-2,5-dioxo-1,2,3,4,5,6,7,8-octahydropyrido[4,3-d]pyrimidin-4-yl)benzonitrile]
IC50 [1]: 36 nM

N#Cc1ccc(C2C3=C(CCNC3=O)N(c3cccc(C(F)(F)F)c3)C(=O)N2CC(=O)O)cc1 (centres unmarked) [Example 10, 2-(4-(4-Cyanophenyl)-2,5-dioxo-1-(3-(trifluoromethyl)phenyl)-1,2,5,6,7,8-hexahydropyrido[4,3-d]pyrimidin-3(4H)-yl)acetic acid]
IC50 [1]: 2.7 nM
IC50 [2]: 2.4 nM

N#Cc1ccc(C2C3=C(CCNC3=O)N(c3cccc(C(F)(F)F)c3)C(=O)N2CC(N)=O)cc1 (centres unmarked) [Example 11, 2-(4-(4-Cyanophenyl)-2,5-dioxo-1-(3-(trifluoromethyl)phenyl)-1,2,5,6,7,8-hexahydropyrido[4,3-d]pyrimidin-3(4H)-yl)acetamide]
IC50 [1]: 3 nM
IC50 [2]: 2.9 nM

CN(C)C(=O)CN1C(=O)N(c2cccc(C(F)(F)F)c2)C2=C(C(=O)NCC2)C1c1ccc(C#N)cc1 (centres unmarked) [Example 12.1]
IC50 [1]: 1.1 nM
IC50 [2]: < 1 nM

CCNC(=O)CN1C(=O)N(c2cccc(C(F)(F)F)c2)C2=C(C(=O)NCC2)C1c1ccc(C#N)cc1 (centres unmarked) [Example 12.2]
IC50 [1]: 2.4 nM
IC50 [2]: 2.5 nM

N#Cc1ccc(C2C3=C(CCNC3=O)N(c3cccc(C(F)(F)F)c3)C(=O)N2CC(=O)NCCO)cc1 (centres unmarked) [Example 12.3]
IC50 [1]: 2.1 nM
IC50 [2]: 3.6 nM

COCCNC(=O)CN1C(=O)N(c2cccc(C(F)(F)F)c2)C2=C(C(=O)NCC2)C1c1ccc(C#N)cc1 (centres unmarked) [Example 12.4]
IC50 [1]: 2 nM
IC50 [2]: 5.1 nM

N#Cc1ccc(C2C3=C(CCNC3=O)N(c3cccc(C(F)(F)F)c3)C(=O)N2CC(=O)N2CC3CC3C2)cc1 (centres unmarked) [Example 12.5]
IC50 [1]: < 1 nM
IC50 [2]: < 1 nM

N#Cc1ccc(C2C3=C(CCNC3=O)N(c3cccc(C(F)(F)F)c3)C(=O)N2CC(=O)N2CCCCC2)cc1 (centres unmarked) [Example 12.6]
IC50 [1]: < 1 nM
IC50 [2]: < 1 nM

N#Cc1ccc(C2C3=C(CCNC3=O)N(c3cccc(C(F)(F)F)c3)C(=O)N2CC(=O)N2CCOCC2)cc1 (centres unmarked) [Example 12.7]
IC50 [1]: < 1 nM
IC50 [2]: < 1 nM

N#Cc1ccc(C2C3=C(CCNC3=O)N(c3cccc(C(F)(F)F)c3)C(=O)N2CC(=O)N2CCC(F)C2)cc1 (centres unmarked) [Example 12.8]
IC50 [1]: < 1 nM
IC50 [2]: 1.1 nM

Cn1ncc2c1CN(C(=O)CN1C(=O)N(c3cccc(C(F)(F)F)c3)C3=C(C(=O)NCC3)C1c1ccc(C#N)cc1)C2 (centres unmarked) [Example 12.9]
IC50 [1]: < 1 nM
IC50 [2]: 1 nM

CNC(=O)CN1C(=O)N(c2cccc(C(F)(F)F)c2)C2=C(C(=O)NCC2)[C@H]1c1ccc(C#N)cc1 [Example 12A, (R)-2-(4-(4-Cyanophenyl)-2,5-dioxo-1-(3-(trifluoromethyl)phenyl)-1,2,5,6,7,8-hexahydropyrido[4,3-d]pyrimidin-3(4H)-yl)-N-methylacetamide]
IC50 [1]: 1.3 nM
IC50 [2]: < 1 nM

CNC(=O)CN1C(=O)N(c2cccc(C(F)(F)F)c2)C2=C(C(=O)NCC2)[C@@H]1c1ccc(C#N)cc1 [Example 12B, (S)-2-(4-(4-Cyanophenyl)-2,5-dioxo-1-(3-(trifluoromethyl)phenyl)-1,2,5,6,7,8-hexahydropyrido[4,3-d]pyrimidin-3(4H)-yl)-N-methylacetamide]
IC50 [1]: 1200 nM

CC1(C)CC2=C(C(=O)N1)C(c1ccc(C#N)cc1)N(CC(=O)O)C(=O)N2c1cccc(C(F)(F)F)c1 (centres unmarked) [Example 13, 2-(4-(4-cyanophenyl)-7,7-dimethyl-2,5-dioxo-1-(3-(trifluoromethyl)phenyl)-1,2,5,6,7,8-hexahydropyrido[4,3-d]pyrimidin-3(4H)-yl)acetic acid]
IC50 [1]: 4.3 nM
IC50 [2]: 2.2 nM

CN1CCC2=C(C1=O)C(c1ccc(C#N)cc1)N(CC(N)=O)C(=O)N2c1cccc(C(F)(F)F)c1 (centres unmarked) [Example 14, 2-(4-(4-Cyanophenyl)-6-methyl-2,5-dioxo-1-(3-(trifluoromethyl)phenyl)-1,2,5,6,7,8-hexahydropyrido[4,3-d]pyrimidin-3(4H)-yl)acetamide]
IC50 [1]: 3 nM
IC50 [2]: 14 nM

CN1C(=O)N(c2cccc(C(F)(F)F)c2)C2=C(C(=O)NCC2)[C@@H]1c1ccc(C#N)cc1-c1cnco1 [Example 30B, 4-[(4S)-3-Methyl-2,5-dioxo-1-[3-(trifluoromethyl)phenyl]-1H,2H,3H,4H,5H,6H,7H,8H-pyrido[4,3-d]pyrimidin-4-yl]-3-(1,3-oxazol-5-yl)benzonitrile]
IC50 [1]: 12 nM

CN1C(=O)N(c2cccc(C(F)(F)F)c2)C2=C(C(=O)NCC2)[C@@H]1c1ccc(C#N)cc1-c1cnn(C)c1 [Example 31B, 3-(1-Methyl-1H-pyrazol-4-yl)-4-[(4S)-3-methyl-2,5-dioxo-1-[3-(trifluoromethyl)-phenyl]-1H,2H,3H,4H,5H,6H,7H,8H-pyrido[4,3-d]pyrimidin-4-yl]benzonitrile]
IC50 [1]: 17 nM

CN1C(=O)N(c2cccc(C(F)(F)F)c2)C2=C(C(=O)NCC2)[C@@H]1c1ccc(C#N)cc1CO [Example 32B, 3-(Hydroxymethyl)-4-[(4S)-3-methyl-2,5-dioxo-1-[3-(trifluoromethyl)phenyl]-1H,2H,3H,4H,5H,6H,7H,8H-pyrido[4,3-d]pyrimidin-4-yl]benzonitrile]
IC50 [1]: 39 nM
